{"source": "patent US20150094474A1", "about": "“AGRICULTURAL CHEMICALS” (Redx Pharma Ltd., priority 2012, published 2015)", "key": {"[1]": {"system": "Chinese cabbage", "test": "Herbicidal bioassay, Chinese cabbage (% necrosis)", "assay_type": "in vivo", "experimental": "(§1) A laboratory bioassay was conducted to screen ten compounds (Fluazifop (25); Ethyl fluazifop (62); five fluazifop analogues: 27, 28, 63, 64 and 65; mesofulfuron (6); and two mesosulfuron analogues: 8 and 61. for activity against Lolium perenne, barley, peas and Chinese cabbage. Compounds were diluted in DMSO. Controls were performed using both DMSO and water.\n(§2) Plants were obtained as seeds and were grown to the 2-4 true leaf stage. Plants were grown individually in seed trays. Each plant (in an approximately 3 cm diameter plug) was then detached from the tray for spraying. Environmental conditions were closely monitored and recorded and were within the optimal range of the target species.\n(§3) The compounds were screened at a range of six concentrations, eg. 0.05%, 0.01%, 0.005%, 0.001%, 0.0005% and 0.0001%. Treatments will be applied directly onto the plants, using a potter tower.\n(§4) One plant of each type will be sprayed using a potter tower. The 4 different types of weeds will be placed in a 10 cm diameter area underneath the potter sprayer and sprayed simultaneously. The growth of the plants and any Phytotoxicity effects will then be assessed at specified growth intervals, according to EPPO guideline PP1/135. Five replicates will be performed for each treatment, for each species."}, "[2]": {"system": "Lolium perenne", "test": "Herbicidal bioassay, Lolium perenne / rye grass (% necrosis)", "assay_type": "in vivo", "experimental": "as §1, §2, §3, §4"}}}
{"compound": "CCOC(=O)C(C)Oc1ccc(Oc2ccc(C(F)(F)F)cn2)cc1", "note": "(stereo not drawn) [Fluazifop Ethyl ester (62)]", "values": [{"measurement": "Sum of % necrosis in Chinese cabbage", "setting": "[1]; Dose 0.000001, Day 0", "value": "C (less than 50% necrosis)"}, {"measurement": "Sum of % necrosis in Chinese cabbage", "setting": "[1]; Dose 0.000001, Day 1", "value": "C (less than 50% necrosis)"}, {"measurement": "Sum of % necrosis in Chinese cabbage", "setting": "[1]; Dose 0.000001, Day 3", "value": "C (less than 50% necrosis)"}, {"measurement": "Sum of % necrosis in Chinese cabbage", "setting": "[1]; Dose 0.000001, Day 7", "value": "C (less than 50% necrosis)"}, {"measurement": "Sum of % necrosis in Chinese cabbage", "setting": "[1]; Dose 0.000001, Day 10", "value": "C (less than 50% necrosis)"}, {"measurement": "Sum of % necrosis in Chinese cabbage", "setting": "[1]; Dose 0.000001, Day 14", "value": "C (less than 50% necrosis)"}, {"measurement": "Sum of % necrosis in Chinese cabbage", "setting": "[1]; Dose 0.000001, Day 21", "value": "C (less than 50% necrosis)"}, {"measurement": "Sum of % necrosis in Chinese cabbage", "setting": "[1]; Dose 0.000005, Day 0", "value": "C (less than 50% necrosis)"}, {"measurement": "Sum of % necrosis in Chinese cabbage", "setting": "[1]; Dose 0.000005, Day 1", "value": "C (less than 50% necrosis)"}, {"measurement": "Sum of % necrosis in Chinese cabbage", "setting": "[1]; Dose 0.000005, Day 3", "value": "C (less than 50% necrosis)"}, {"measurement": "Sum of % necrosis in Chinese cabbage", "setting": "[1]; Dose 0.000005, Day 7", "value": "C (less than 50% necrosis)"}, {"measurement": "Sum of % necrosis in Chinese cabbage", "setting": "[1]; Dose 0.000005, Day 10", "value": "A (over 80% necrosis)"}, {"measurement": "Sum of % necrosis in Chinese cabbage", "setting": "[1]; Dose 0.000005, Day 14", "value": "A (over 80% necrosis)"}, {"measurement": "Sum of % necrosis in Chinese cabbage", "setting": "[1]; Dose 0.000005, Day 21", "value": "A (over 80% necrosis)"}, {"measurement": "Sum of % necrosis in Chinese cabbage", "setting": "[1]; Dose 0.00001, Day 0", "value": "C (less than 50% necrosis)"}, {"measurement": "Sum of % necrosis in Chinese cabbage", "setting": "[1]; Dose 0.00001, Day 1", "value": "C (less than 50% necrosis)"}, {"measurement": "Sum of % necrosis in Chinese cabbage", "setting": "[1]; Dose 0.00001, Day 3", "value": "C (less than 50% necrosis)"}, {"measurement": "Sum of % necrosis in Chinese cabbage", "setting": "[1]; Dose 0.00001, Day 7", "value": "C (less than 50% necrosis)"}, {"measurement": "Sum of % necrosis in Chinese cabbage", "setting": "[1]; Dose 0.00001, Day 10", "value": "B (50%-80% necrosis)"}, {"measurement": "Sum of % necrosis in Chinese cabbage", "setting": "[1]; Dose 0.00001, Day 14", "value": "A (over 80% necrosis)"}, {"measurement": "Sum of % necrosis in Chinese cabbage", "setting": "[1]; Dose 0.00001, Day 21", "value": "A (over 80% necrosis)"}, {"measurement": "Sum of % necrosis in Chinese cabbage", "setting": "[1]; Dose 0.00005, Day 0", "value": "C (less than 50% necrosis)"}, {"measurement": "Sum of % necrosis in Chinese cabbage", "setting": "[1]; Dose 0.00005, Day 1", "value": "C (less than 50% necrosis)"}, {"measurement": "Sum of % necrosis in Chinese cabbage", "setting": "[1]; Dose 0.00005, Day 3", "value": "C (less than 50% necrosis)"}, {"measurement": "Sum of % necrosis in Chinese cabbage", "setting": "[1]; Dose 0.00005, Day 7", "value": "B (50%-80% necrosis)"}, {"measurement": "Sum of % necrosis in Chinese cabbage", "setting": "[1]; Dose 0.00005, Day 10", "value": "A (over 80% necrosis)"}, {"measurement": "Sum of % necrosis in Chinese cabbage", "setting": "[1]; Dose 0.00005, Day 14", "value": "A (over 80% necrosis)"}, {"measurement": "Sum of % necrosis in Chinese cabbage", "setting": "[1]; Dose 0.00005, Day 21", "value": "A (over 80% necrosis)"}, {"measurement": "Sum of % necrosis in Chinese cabbage", "setting": "[1]; Dose 0.0001, Day 0", "value": "C (less than 50% necrosis)"}, {"measurement": "Sum of % necrosis in Chinese cabbage", "setting": "[1]; Dose 0.0001, Day 1", "value": "C (less than 50% necrosis)"}, {"measurement": "Sum of % necrosis in Chinese cabbage", "setting": "[1]; Dose 0.0001, Day 3", "value": "C (less than 50% necrosis)"}, {"measurement": "Sum of % necrosis in Chinese cabbage", "setting": "[1]; Dose 0.0001, Day 7", "value": "B (50%-80% necrosis)"}, {"measurement": "Sum of % necrosis in Chinese cabbage", "setting": "[1]; Dose 0.0001, Day 10", "value": "A (over 80% necrosis)"}, {"measurement": "Sum of % necrosis in Chinese cabbage", "setting": "[1]; Dose 0.0001, Day 14", "value": "A (over 80% necrosis)"}, {"measurement": "Sum of % necrosis in Chinese cabbage", "setting": "[1]; Dose 0.0001, Day 21", "value": "A (over 80% necrosis)"}, {"measurement": "Sum of % necrosis in Chinese cabbage", "setting": "[1]; Dose 0.0005, Day 0", "value": "C (less than 50% necrosis)"}, {"measurement": "Sum of % necrosis in Chinese cabbage", "setting": "[1]; Dose 0.0005, Day 1", "value": "C (less than 50% necrosis)"}, {"measurement": "Sum of % necrosis in Chinese cabbage", "setting": "[1]; Dose 0.0005, Day 3", "value": "B (50%-80% necrosis)"}, {"measurement": "Sum of % necrosis in Chinese cabbage", "setting": "[1]; Dose 0.0005, Day 7", "value": "A (over 80% necrosis)"}, {"measurement": "Sum of % necrosis in Chinese cabbage", "setting": "[1]; Dose 0.0005, Day 10", "value": "A (over 80% necrosis)"}, {"measurement": "Sum of % necrosis in Chinese cabbage", "setting": "[1]; Dose 0.0005, Day 14", "value": "A (over 80% necrosis)"}, {"measurement": "Sum of % necrosis in Chinese cabbage", "setting": "[1]; Dose 0.0005, Day 21", "value": "A (over 80% necrosis)"}, {"measurement": "Sum of % necrosis in Rye grass", "setting": "[2]; Dose 0.000001, Day 0", "value": "C (less than 50% necrosis)"}, {"measurement": "Sum of % necrosis in Rye grass", "setting": "[2]; Dose 0.000001, Day 1", "value": "C (less than 50% necrosis)"}, {"measurement": "Sum of % necrosis in Rye grass", "setting": "[2]; Dose 0.000001, Day 3", "value": "C (less than 50% necrosis)"}, {"measurement": "Sum of % necrosis in Rye grass", "setting": "[2]; Dose 0.000001, Day 7", "value": "C (less than 50% necrosis)"}, {"measurement": "Sum of % necrosis in Rye grass", "setting": "[2]; Dose 0.000001, Day 10", "value": "C (less than 50% necrosis)"}, {"measurement": "Sum of % necrosis in Rye grass", "setting": "[2]; Dose 0.000001, Day 14", "value": "C (less than 50% necrosis)"}, {"measurement": "Sum of % necrosis in Rye grass", "setting": "[2]; Dose 0.000001, Day 21", "value": "C (less than 50% necrosis)"}, {"measurement": "Sum of % necrosis in Rye grass", "setting": "[2]; Dose 0.000005, Day 0", "value": "C (less than 50% necrosis)"}, {"measurement": "Sum of % necrosis in Rye grass", "setting": "[2]; Dose 0.000005, Day 1", "value": "C (less than 50% necrosis)"}, {"measurement": "Sum of % necrosis in Rye grass", "setting": "[2]; Dose 0.000005, Day 3", "value": "C (less than 50% necrosis)"}, {"measurement": "Sum of % necrosis in Rye grass", "setting": "[2]; Dose 0.000005, Day 7", "value": "C (less than 50% necrosis)"}, {"measurement": "Sum of % necrosis in Rye grass", "setting": "[2]; Dose 0.000005, Day 10", "value": "C (less than 50% necrosis)"}, {"measurement": "Sum of % necrosis in Rye grass", "setting": "[2]; Dose 0.000005, Day 14", "value": "C (less than 50% necrosis)"}, {"measurement": "Sum of % necrosis in Rye grass", "setting": "[2]; Dose 0.000005, Day 21", "value": "C (less than 50% necrosis)"}, {"measurement": "Sum of % necrosis in Rye grass", "setting": "[2]; Dose 0.00001, Day 0", "value": "C (less than 50% necrosis)"}, {"measurement": "Sum of % necrosis in Rye grass", "setting": "[2]; Dose 0.00001, Day 1", "value": "C (less than 50% necrosis)"}, {"measurement": "Sum of % necrosis in Rye grass", "setting": "[2]; Dose 0.00001, Day 3", "value": "C (less than 50% necrosis)"}, {"measurement": "Sum of % necrosis in Rye grass", "setting": "[2]; Dose 0.00001, Day 7", "value": "C (less than 50% necrosis)"}, {"measurement": "Sum of % necrosis in Rye grass", "setting": "[2]; Dose 0.00001, Day 10", "value": "C (less than 50% necrosis)"}, {"measurement": "Sum of % necrosis in Rye grass", "setting": "[2]; Dose 0.00001, Day 14", "value": "C (less than 50% necrosis)"}, {"measurement": "Sum of % necrosis in Rye grass", "setting": "[2]; Dose 0.00001, Day 21", "value": "C (less than 50% necrosis)"}]}
